Test results reported in PMC11945486, “TAS1R2/TAS1R3 Single-Nucleotide Polymorphisms Affect Sweet Taste Receptor Activation by Sweeteners: The SWEET Project” (Nutrients, 2025).
No end group written: not given here.

T1: human TAS1R2-K689Q/TAS1R3-WT (Homo sapiens, UniProt Q7RTX0+Q8TE23, K689Q)
T1 construct: expressed in transfected cells; host or cells: HEK293T-Gα16gust44
T1 sequence (Q8TE23 20-839 K689Q): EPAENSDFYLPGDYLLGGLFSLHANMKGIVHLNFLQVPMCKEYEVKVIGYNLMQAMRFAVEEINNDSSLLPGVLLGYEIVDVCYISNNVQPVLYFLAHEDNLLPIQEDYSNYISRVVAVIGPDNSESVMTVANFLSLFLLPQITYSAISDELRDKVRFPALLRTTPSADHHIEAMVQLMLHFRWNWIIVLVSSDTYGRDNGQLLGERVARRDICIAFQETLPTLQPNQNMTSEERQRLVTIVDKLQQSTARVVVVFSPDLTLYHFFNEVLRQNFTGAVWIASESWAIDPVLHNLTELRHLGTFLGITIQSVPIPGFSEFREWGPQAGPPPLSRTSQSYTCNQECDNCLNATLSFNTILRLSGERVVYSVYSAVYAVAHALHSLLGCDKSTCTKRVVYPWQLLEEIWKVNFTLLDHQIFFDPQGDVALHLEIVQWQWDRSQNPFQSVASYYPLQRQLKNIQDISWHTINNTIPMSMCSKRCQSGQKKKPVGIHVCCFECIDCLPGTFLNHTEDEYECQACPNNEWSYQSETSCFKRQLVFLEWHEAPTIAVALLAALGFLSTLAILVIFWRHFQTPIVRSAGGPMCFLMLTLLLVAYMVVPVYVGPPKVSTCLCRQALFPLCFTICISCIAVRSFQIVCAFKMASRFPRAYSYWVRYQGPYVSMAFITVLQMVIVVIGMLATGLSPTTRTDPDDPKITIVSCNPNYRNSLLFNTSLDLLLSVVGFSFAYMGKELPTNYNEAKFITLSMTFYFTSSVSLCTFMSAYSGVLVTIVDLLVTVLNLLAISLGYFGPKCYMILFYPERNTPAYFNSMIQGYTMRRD
T1 sequence (Q7RTX0 21-852): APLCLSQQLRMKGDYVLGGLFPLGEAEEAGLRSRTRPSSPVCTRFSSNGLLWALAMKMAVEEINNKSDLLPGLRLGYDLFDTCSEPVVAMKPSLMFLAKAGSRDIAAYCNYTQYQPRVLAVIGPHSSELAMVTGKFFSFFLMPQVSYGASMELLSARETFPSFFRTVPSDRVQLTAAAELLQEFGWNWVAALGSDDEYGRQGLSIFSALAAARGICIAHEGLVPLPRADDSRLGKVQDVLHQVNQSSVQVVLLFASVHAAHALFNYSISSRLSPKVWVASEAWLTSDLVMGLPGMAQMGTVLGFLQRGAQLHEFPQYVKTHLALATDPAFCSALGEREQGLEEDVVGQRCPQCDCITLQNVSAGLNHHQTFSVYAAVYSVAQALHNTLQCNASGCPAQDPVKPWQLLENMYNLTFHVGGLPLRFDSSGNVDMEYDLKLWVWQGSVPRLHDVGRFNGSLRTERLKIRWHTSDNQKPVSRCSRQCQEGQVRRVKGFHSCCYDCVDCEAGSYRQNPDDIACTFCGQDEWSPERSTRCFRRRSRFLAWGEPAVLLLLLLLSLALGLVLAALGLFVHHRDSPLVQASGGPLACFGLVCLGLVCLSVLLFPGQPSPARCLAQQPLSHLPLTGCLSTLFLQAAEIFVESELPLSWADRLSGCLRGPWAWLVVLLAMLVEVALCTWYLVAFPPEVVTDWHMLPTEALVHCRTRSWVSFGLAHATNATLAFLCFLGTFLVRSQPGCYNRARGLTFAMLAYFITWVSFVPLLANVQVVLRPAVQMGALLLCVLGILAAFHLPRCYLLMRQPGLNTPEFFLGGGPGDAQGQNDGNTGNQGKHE

B1: thaumatin (protein)
chain: ATFEIVNRCSYTVWAAASKGDAALDAGGRQLNSGESWTINVEPGTKGGKIWARTDCYFDDSGSGICKTGDCGGLLRCKRFGRPPTTLAEFSLNQYGKDYIDISNIKGFNVPMDFSPTTRGCRGVRCAADIVGQCPAKLKAPGGGCNDACTVFQTSEYCCTTGKCGPTEYSRFFKRLCPDAFSYVLDKPTTVTCPGSSNYRVTFCPTA
modifications: Eight disulfides
notes: sweet-tasting plant protein, E957

Biological target: T1, human TAS1R2-K689Q/TAS1R3-WT
Assay: Calcium mobilisation assay, TAS1R2 variant K689Q with TAS1R3-WT
Type: cell-based
Settings: "-": no activation; for Max ΔF/F0: maximal signal amplitude; for EC50: "nd": not determined
Source text: The coding sequences for TAS1R2 and TAS1R3 were commercially synthesised, and the human codon was optimised for expression in human cells. The coding sequences of human TAS1R2 and TAS1R3 were subcloned and inserted into the mammalian expression vectors pcDNA6/myc-HisA and pcDNA4/myc-HisA (Invitrogen; Thermo Fisher Scientific; Illkirch, France) between the EcoRI and NotI restriction sites, generating the plasmids pcDNA6-TAS1R2 and pcDNA4-TAS1R3, respectively. To increase protein expression in mammalian cells, an upstream start codon was used, which was a sequence called MAX, corresponding to the QBI SP163 element also described in pcDNA4-HisMax (Invitrogen; Thermo Fisher Scientific; Illkirch, France). To measure the expression level of the receptor by immunohistochemistry, we used the FLAG sequence ([…]) in the C-terminal position, which encodes the FLAG tag epitope. SNP variants of TAS1R2 and TAS1R3 were constructed based on […], respectively, using site-directed mutagenesis (Genewiz; Leipzig, Germany).
The HEK293T cells were kindly provided by Jay P. Slack (Givaudan Flavors Corporation; Cincinnati, OH, USA). HEK293T cells stably transfected with Gα16gust44 [43, 67] were seeded in poly-D-lysine-coated clear-bottom black 96-well plates (0.35 × 10^5 cells/well) in high-glucose DMEM supplemented with 2 mM GlutaMAX, 10% dialysed foetal bovine serum with penicillin/streptomycin and G418 (400 μg/mL) at 37 °C and 6.3% CO2 in a humidified atmosphere as previously reported. […] As a negative control, HEK293T cells were mock-transfected with the empty expression vector. After a further 24 h of incubation, the HEK293T cells were washed with C1 buffer (130 mM NaCl, 5 mM KCl, 10 mM HEPES pH 7.4 and 2 mM CaCl2). The 96-well plates containing the cells were then stimulated with sweet-tasting compounds. […] Different concentration ranges were tested depending on the sweet compound injected. The Ca^2+ changes were expressed as fractional changes in fluorescent light intensity: ΔF/F = (F − F0)/F0, where F was the fluorescent light intensity at each point, and F0 was the value of emitted fluorescent light prior to stimulus application. To calculate dose–response relationships, the changes in fluorescence upon stimulus application were averaged, mock-subtracted and baseline-corrected. The dose–response data obtained were adjusted using a 4-parameter logistic equation. The half-maximal effective concentrations (EC50 values) and maximal signal amplitudes were calculated using SigmaPlot software (version 15.0) (Systat Software; San Jose, CA, USA).
For in vitro calcium mobilisation assay performed on hTAS1R2-SNPs, hTAS1R3-SNPs and mTAS1R3-I60T, 6 to 7 concentrations were tested for each sweet compound, plus buffer alone. All concentration–receptor combinations were measured in duplicate, and each experiment was repeated at least 4 times (8 wells/concentration). Results were expressed for each concentration as ΔF/F mean ± SEM and represented as dose–response curves.

Molecule | R1 = Variant EC50/WT EC50 | Max ΔF/F0 | EC50
CC1=CC(=O)NS(=O)(=O)O1 [Acesulfame K, acesulfame K] | 4.3 | 0.02 | –
O=S(=O)(O)NC1CCCCC1 [Cyclamate, cyclamate] | – | – | 5010 ± 220 µM
C[C@H](CC[C@@H](O[C@@H]1O[C@H](CO[C@@H]2O[C@H](CO)[C@@H](O)[C@H](O)[C@H]2O)[C@@H](O)[C@H](O)[C@H]1O[C@@H]1O[C@H](CO)[C@@H](O)[C@H](O)[C@H]1O)C(C)(C)O)[C@H]1CC[C@@]2(C)[C@@H]3CC=C4[C@@H](CC[C@H](O[C@@H]5O[C@H](CO[C@@H]6O[C@H](CO)[C@@H](O)[C@H](O)[C@H]6O)[C@@H](O)[C@H](O)[C@H]5O)C4(C)C)[C@]3(C)[C@H](O)C[C@]12C [Mogroside V, mogroside V] | 3.3 | 0.54 ± 0.01 | 57.9 ± 0.4 µM
COc1ccc(CCC(=O)c2c(O)cc(O[C@@H]3O[C@H](CO)[C@@H](O)[C@H](O)[C@H]3O[C@@H]3O[C@@H](C)[C@H](O)[C@@H](O)[C@H]3O)cc2O)cc1O [NHDC, neohesperidin dihydrochalcone] | – | – | > 1000 µM
COC(=O)[C@H](Cc1ccccc1)NC(=O)[C@H](CC(=O)O)NCCC(C)(C)C [Neotame] | 4.3 | 0.12 ± 0.01 | 3.58 ± 0.46 µM
C=C(C)[C@@H]1CC=C(/C=N/O)CC1 [Perillartine, perillartine] | 7.6 | 1.36 ± 0.01 | 132 ± 16.9 µM
C=C1C[C@@]23CC[C@H]4[C@@](C)(CCC[C@@]4(C)C(=O)O[C@@H]4O[C@H](CO)[C@@H](O)[C@H](O[C@@H]5O[C@H](CO)[C@@H](O)[C@H](O)[C@H]5O)[C@H]4O[C@@H]4O[C@H](CO)[C@@H](O)[C@H](O)[C@H]4O)[C@@H]2CC[C@]1(O[C@@H]1O[C@H](CO)[C@@H](O)[C@H](O[C@@H]2O[C@H](CO)[C@@H](O)[C@H](O)[C@H]2O)[C@H]1O[C@@H]1O[C@H](CO)[C@@H](O)[C@H](O)[C@H]1O)C3 [Rebaudioside M, rebaudioside M] | 4.5 | 0.36 ± 0.01 | 75.8 ± 2.3 µM
OC[C@H]1O[C@H](O[C@]2(CCl)O[C@H](CCl)[C@@H](O)[C@@H]2O)[C@H](O)[C@@H](O)[C@H]1Cl [Sucralose] | 3.4 | 0.08 ± 0.01 | 307 µM
brazzein (QDKCKKVYENYPVSKCQLANQCNYDCKLDKHARSGECFYDEKRNLQCICDYCEY; ends and bridges not checked; cysteine pairing not given here; UniProt P56552 1-54, looked up) [sweet-tasting protein obtained by recombinant production using the yeast Pichia pastoris] | 5.7 | 0.64 ± 0.03 | –
thaumatin | 4.4 | 0.87 ± 0.09 | –
B1 | – | – | 33.5 µM
